{"source": "patent US20060052368A1", "about": "(priority 2002, published 2006)", "target": "α7 nAChR subtype (Rattus norvegicus, UniProt Q05941)", "sequence (Q05941 23-502 limits assumed)": "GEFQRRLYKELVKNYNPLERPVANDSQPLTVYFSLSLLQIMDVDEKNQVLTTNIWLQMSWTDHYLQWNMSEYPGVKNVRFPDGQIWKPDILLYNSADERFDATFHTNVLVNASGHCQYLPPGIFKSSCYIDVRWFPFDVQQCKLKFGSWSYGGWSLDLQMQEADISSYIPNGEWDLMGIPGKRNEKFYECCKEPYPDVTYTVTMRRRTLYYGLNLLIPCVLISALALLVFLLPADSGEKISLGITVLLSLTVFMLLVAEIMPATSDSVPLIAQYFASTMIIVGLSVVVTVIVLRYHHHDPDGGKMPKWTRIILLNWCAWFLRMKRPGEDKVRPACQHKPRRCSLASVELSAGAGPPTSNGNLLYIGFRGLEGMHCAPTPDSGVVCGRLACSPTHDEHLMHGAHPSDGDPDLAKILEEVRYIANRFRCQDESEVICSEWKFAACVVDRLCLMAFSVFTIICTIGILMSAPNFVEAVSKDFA", "format": "binding", "settings": "read-out: KD of radioligand from saturation curves", "data": [{"substance": "^125I-α-Bungarotoxin [^125I-α-BTX]", "values": [{"measurement": "Kd", "value": 1.67, "unit": "nM"}]}]}
